Consider two molecules from patent publication US11000495B2, “Topical diclofenac sodium compositions” (Novartis Consumer Health S.A., priority 2014, dated 2021).

Structures can show the parent of a compound that is named as a salt.

The nature of data set [1]: Solubility of diclofenac sodium 2 wt % in IPA/PG/water solvent mixtures by UV absorbance. The class given is physicochemical. As to conditions: 2% diclofenac sodium in IPA/PG/water, 25° C., systems shown as circles in FIG. 1. Here is the method:
FIG. 1 is a ternary diagram of the solubility of diclofenac sodium, 2 wt %, at 25° C., as determined by UV absorbance, in solvent mixtures comprising isopropyl alcohol (bottom axis), propylene glycol (left axis), and water (right axis) in varying amounts. The data points represent solvent mixtures which are found to be at or above (circles), or below (squares), the target (i.e. 2%) solubility. FIG. 1 illustrates solubility studies of such solvent systems comprising 2% diclofenac sodium in isopropyl alcohol (IPA), propylene glycol (PG) and water. […] (Incomplete solubilization is represented by squares.)

For data set [2] the following is noted: cited from earlier work.

Consider `O=C(O)Cc1ccccc1Nc1c(Cl)cccc1Cl` [diclofenac sodium, 2-[(2,6-dichloro-phenyl)amino]benzeneacetic acid, (mono) sodium salt], for which the “solubility of the salt in solvent systems” value in data set [1] is “Complete solubility”. In addition, in data set [2] (anhydrous form, Llinas et al.), the kinetic solubility is 40 ± 5 µg/mL.

For `O=C(O)Cc1ccccc1Nc1c(Cl)cccc1Cl` [Acidic diclofenac, diclofenac], the water solubility entry in data set [2] (acid form, Fini et al.) is on record as “very low”.
